Values after ≈ are worked out from the molar mass of the structure shown. Like-named read-outs stand apart in the source and are kept apart here.

Data on eight molecules can be found in publication PMC6273036, “N-Alkoxyphenylhydroxynaphthalenecarboxamides and Their Antimycobacterial Activity” (Molecules, 2016).

For one data set, the system named is M. smegmatis ATCC 700084. As to the kind of experiment: In vitro antimycobacterial evaluation (broth dilution micro-method, MIC) against M. smegmatis. It counts as cell-based. Conditions: Mycolicibacterium smegmatis, ATCC700084, 72 h; Mycobacterium smegmatis ATCC 700084; MIC = IC90; 3 days incubation, visual.
The test system of data set [1] is Mycobacterium tuberculosis H37Ra ATCC 25177. The experiment in a line: In vitro antimycobacterial evaluation (alamarBlue, MIC) against M. tuberculosis. The format is cell-based. Conditions: 168 h, M. tuberculosis H37Ra ATCC 25177, MIC = 90% or greater (IC90) reduction of growth, 7 days. The procedure: The evaluation of the in vitro antimycobacterial activity of the compounds was performed against Mycobacterium tuberculosis H37Ra ATCC 25177 (MT), M. kansasii DSM 44162 (MK) and M. smegmatis ATCC 700084 (MS), see Table 1. To lower risk and make manipulation in the laboratory easier, surrogate model pathogens for M. tuberculosis can be used in laboratory studies. Avirulent M. tuberculosis strain H37Ra is very closely related to and has similar pathology as human-infecting M. tuberculosis strains, making it a good model for study especially because of the lower risk for laboratory workers. M. kansasii, the most virulent of the NTM, causes nontuberculous mycobacterial lung infections, which are now very common, and can be indistinguishable from tuberculosis. M. smegmatis is an ideal representative of a fast-growing nonpathogenic microorganism, particularly useful in studying basic cellular processes of special relevance to pathogenic mycobacteria. Therefore additionally M. kansasii and M. smegmatis were chosen as model species for screening of prospective antimycobacterial drugs to control mycobacterial diseases. The potency of the compounds was expressed as the minimum inhibitory concentration (MIC) that is defined for mycobacteria as 90% or greater (IC90) reduction of growth in comparison with the control.
Mycobacterium tuberculosis H37Ra ATCC 25177 was grown in Middlebrook broth (MB), supplemented with Oleic-Albumin-Dextrose-Catalase (OADC) supplement (Becton, Dickinson & Comp., Franklin Lakes, NJ, USA) and mycobactin J (2 μg/mL). At log phase growth, a culture sample (10 mL) was centrifuged at 15,000 rpm/20 min using a bench top centrifuge (Model CR 4-12, Jouan Inc., Winchester, VA, USA). Following the removal of the supernatant, the pellet was washed in fresh Middlebrook 7H9GC broth and re-suspended in fresh, ODAC-supplemented MB (10 mL). The turbidity was adjusted to match McFarland standard No. 1 (3 × 10^8 cfu) with MB broth. A further 1:20 dilution of the culture was then performed in MB broth. The antimicrobial susceptibility of M. tuberculosis was investigated in a 96-well plate format. In these experiments, sterile deionised water (300 µL) was added to all outer-perimeter wells of the plates to minimize evaporation of the medium in the test wells during incubation. Each evaluated compound (100 µL) was incubated with M. tuberculosis (100 µL). Dilutions of each compound were prepared in duplicate. For all synthesized compounds, final concentrations ranged from 1000 μg/mL to 8 μg/mL. All compounds were dissolved in DMSO, and subsequent dilutions were made in supplemented MB. The plates were sealed with parafilm and incubated at 37 °C for 7 days. Following incubation, a 10% addition of alamarBlue (AbD Serotec, Kidlington, UK) was mixed into each well, and readings at 570 nm and 600 nm were taken, initially for background subtraction and subsequently after 24 h re-incubation. The background subtraction is necessary for strongly coloured compounds, where the colour may interfere with the interpretation of any colour change. For non-interfering compounds, a blue colour in the well was interpreted as the absence of growth, and a pink colour was scored as growth.
The minimum inhibitory concentration (MIC) was defined as the lowest concentration of the compound at which no visible bacterial growth was observed, i.e., the MIC is the lowest concentration that prevented a visual colour change from blue to pink. MIC is defined for mycobacteria as 90% or greater (IC90) reduction of growth in comparison with the control. The MIC/IC90 value is routinely and widely used in bacterial assays and is a standard detection limit according to the Clinical and Laboratory Standards Institute (CLSI, www.clsi.org). Rifampicin and isoniazid (Sigma-Aldrich) were used as the standards as they are clinically used antimycobacterial drugs.
(Resazurin is reduced to fluorescent resorufin, in cell work by metabolically active cells.)

Data set [2] deals with Mycobacterium kansasii DSM 44162. The experiment in a line: In vitro antimycobacterial evaluation (broth dilution micro-method, MIC) against M. kansasii. It counts as cell-based. Conditions: DSM44162, 168 h, M. kansasii DSM 44162, MIC = IC90, 7 days incubation, visual. On the technique in general: Broth dilution looks for growth in wells or tubes with falling amounts of substance.

Data set [3] concerns Mycobacterium tuberculosis H37Ra ATCC 25177. The experiment in a line: MTT assay, viability of M. tuberculosis H37Ra. It counts as cell-based. Conditions: at the tested concentration equal to MICs; 7 days; positive result when viability less than 70%. The procedure:
The MTT assay is a well-characterized method of assessing cell growth through measurement of respiration. For the purpose of this assay, a positive result was recorded when the MTT measured viability of M. tuberculosis H37Ra was less than 70% after exposure to the MIC of each test compound.
For the MTT (3-(4,5-dimethylthiazol-2-yl)-2,5-diphenyltetrazolium bromide) assay, the outer wells of a 96-well plate were filled with 200 µL of sterile water, and the inner wells were filled with 100 µL of the tested compound at the MIC to be examined. Compounds were prepared as previously stated and diluted in Middlebrook media to achieve the desired concentration. Mycobacterium tuberculosis H37Ra ATCC 25177 was suspended in ODAC supplemented Middlebrook broth at a MacFarland standard of 1.0 and then diluted 1:20, using Middlebrook broth as a diluent. The diluted mycobacteria (100 µL) were added to each well containing the compound to be tested. A negative growth control was composed of 100 µL of DMSO and 100 µL of the media, and the diluted mycobacteria in broth absent of inhibiting compounds were used as a positive growth control. All compounds and controls were prepared in triplicate. Plates were incubated at 37 °C for 7 days. After the incubation period, 10% well volume of MTT reagent was mixed into each well and incubated at 37 °C for 24 h. The reagent and media were then aspirated from the wells, to which 50 µL 99% isopropanol was then added, and the plates were read at 570 nm. The absorbance readings from the cells, grown in the presence of the tested compounds, were compared with uninhibited cell growth (using DMSO as the blank) to determine the relative percent viability. The percent viability was determined through the MTT assay. The percent viability is calculated through comparison of a measured value against that of the uninhibited control: %viability = OD570E/OD570P × 100, where OD570E is the reading from the compound-exposed cells, while OD570P is the reading from the uninhibited cells (positive control). Cytotoxic potential is determined by a percent viability of <70%.
In general terms: Tetrazolium assays rely on reduction of a dye to a coloured formazan, in cell work by metabolically active cells.

In data set [4] the test system is human monocytic leukemia THP-1 cells. As to the kind of experiment: In vitro antiproliferative assay (WST-1). Conditions: THP-1, 24 h, read-out: IC50 (antiproliferative activity).
Data set [5] has the same test system. Conditions: assessed in this line formerly, read-out: IC50 (antiproliferative activity); cited from earlier work.

In the case of `CCC(C)Oc1cccc(NC(=O)c2c(O)ccc3ccccc23)c1` (stereo not drawn) [Compound 7b, N-[3-(But-2-yloxy)phenyl]-2-hydroxynaphthalene-1-carboxamide], the values for the minimum inhibitory concentration (MIC) (in the data set on M. smegmatis ATCC 700084; in data set [1]; in data set [2]) were 12 µM (≈ 4.02 µg/mL), 23 µM (≈ 7.71 µg/mL) and 47 µM (≈ 15.8 µg/mL), respectively. Further, the “viability of M. tuberculosis H37Ra (MTT)” value in data set [3] is listed as 7.38%. Besides, the IC50 (usually the concentration needed to halve the response being measured) in data set [4] was over 30000 nM.

As for `CC(C)Oc1ccc(NC(=O)c2c(O)ccc3ccccc23)cc1` [Compound 6c, 2-Hydroxy-N-[4-(prop-2-yloxy)phenyl]naphthalene-1-carboxamide], the MIC (as a rule, the lowest concentration found to suppress growth) in the data set with M. smegmatis ATCC 700084 is 796 µM (≈ 256 µg/mL); in data set [1] it was 25 µM (≈ 8.03 µg/mL); in data set [2], 99 µM (≈ 31.8 µg/mL). For the same molecule, the “viability of M. tuberculosis H37Ra (MTT)” value in data set [3] is on record as 8.96%. Moreover, the IC50 in data set [4] is over 30000 nM.

Turning to `CCCOc1cccc(NC(=O)c2ccc3ccccc3c2O)c1` [Compound 11b, 1-Hydroxy-N-(3-propoxyphenyl)naphthalene-2-carboxamide], the MIC against M. smegmatis ATCC 700084 was 199 µM (≈ 64 µg/mL); in data set [1], 24 µM (≈ 7.71 µg/mL); in data set [2], 49 µM (≈ 15.7 µg/mL). For the same molecule, the “viability of M. tuberculosis H37Ra (MTT)” value in data set [3] is 15.13%. In data set [4], the IC50 was 1370 ± 720 nM.

Consider `CC[C@@]1(O)C(=O)OCc2c1cc1n(c2=O)Cc2cc3ccccc3nc2-1` [camptothecin], for which the IC50 in data set [5] was 160 ± 70 nM.

Consider `CCCCOc1cccc(NC(=O)c2ccc3ccccc3c2O)c1` [Compound 12b, N-(3-Butoxyphenyl)-1-hydroxynaphthalene-2-carboxamide], for which the minimal inhibitory concentration (MIC) is 190 µM (≈ 63.7 µg/mL) in the data set on M. smegmatis ATCC 700084, 23 µM (≈ 7.71 µg/mL) in data set [1] and 47 µM (≈ 15.8 µg/mL) in data set [2]. Besides, the “viability of M. tuberculosis H37Ra (MTT)” value in data set [3] worked out at 9.96%. For the same molecule, the IC50 in data set [4] amounted to 1800 ± 320 nM.

With `CCOc1ccc(NC(=O)c2c(O)ccc3ccccc23)cc1` [Compound 3c], the minimum inhibitory concentration (MIC) came to 832 µM (≈ 256 µg/mL) in the data set on M. smegmatis ATCC 700084, 26 µM (≈ 7.99 µg/mL) in data set [1] and 104 µM (≈ 32 µg/mL) in data set [2]. The “viability of M. tuberculosis H37Ra (MTT)” value in data set [3] is given as 9.96%. The IC50 in data set [4] is over 30000 nM.

Turning to `CCOc1ccccc1NC(=O)c1c(O)ccc2ccccc12` [Compound 3a, N-(2-Ethoxyphenyl)-2-hydroxynaphthalene-1-carboxamide], the MIC amounted to 832 µM (≈ 256 µg/mL) against M. smegmatis ATCC 700084, 26 µM (≈ 7.99 µg/mL) in data set [1] and 832 µM (≈ 256 µg/mL) in data set [2]. Further, the “viability of M. tuberculosis H37Ra (MTT)” value in data set [3] turned out to be 30.6%. The IC50 in data set [4] was over 30000 nM.

Regarding `CCC(C)Oc1cccc(NC(=O)c2ccc3ccccc3c2O)c1` (stereo not drawn) [Compound 14b, N-[3-(But-2-yloxy)phenyl]-1-hydroxynaphthalene-2-carboxamide], the MIC in the data set with M. smegmatis ATCC 700084 turned out to be 12 µM (≈ 4.02 µg/mL); in data set [1] it was 23 µM (≈ 7.71 µg/mL); in data set [2] it was 47 µM (≈ 15.8 µg/mL). For the same molecule, the “viability of M. tuberculosis H37Ra (MTT)” value in data set [3] turned out to be 9.96%. Besides, the IC50 in data set [4] is 1170 ± 380 nM.
